From US8389541B2, “Inhibitors of protein tyrosine kinase activity” (MethylGene Inc., priority 2007, dated 2013)

Each compound was assayed on CNV progression (assay: In vivo choroidal neovascularization (CNV) model, laser-induced). Conditions: Brown-Norway rats, intravitreal injection 30 and/or 100 nmol/eye on Day 1 and/or Day 3 and/or Day 7, CNV area on Day 10.
Source text: This test measures the capacity of compounds to inhibit CNV progression. CNV is the main cause of severe vision loss in patients suffering from age-related macular degeneration (AMD).
Male Brown-Norway rats (Japan Clea Co., Ltd.) were used in these studies.
Rats were anesthetized by intraperitoneal injection of pentobarbital, and the right pupil was dilated with 0.5% tropicamide and 0.5% phenylephrine hydrochloride. The right eye received 6 laser burns between retinal vessels using a slit lamp delivery system of Green laser Photocoagulator (Nidex Inc., Japan), and microscope slide glass with Heaton™ (AMO Inc) used as a contact lens. The laser power was 100 or 200 mW for 0.1 second and spot diameter was 100 μm. At the time of laser burn, bubble production was observed, which is an indication of rupture of Bruch's membrane which is important for CNV generation.
Rats were divided into the groups based on their body weight using SAS software (SAS institute Japan, R8.1) after laser irradiation (Day 0). After animals were anesthetized, and the right pupil dilated (as above mentioned), the right eye of the animal received the compound or vehicle by intravitreal injection (5 or 10 μL/eye) at doses of 30 and/or 100 nmol/eyeon Day 1 and/or Day 3 and/or Day 7. The compounds were dissolved or suspended in CBS, PBS, or other adequate vehicles before injection.
On Day 10, the animals were anesthetized with ether, and high molecular weight fluorescein isothiocyanate (FITC)-dextran (SIGMA, 2×10^6 MW) was injected via a tail vein (20 mg/rat). About 30 min after FITC-dextran injection, animals were euthanized by ether or carbon dioxide, and the eyes were removed and fixed with 10% formaline neutral buffer solution. After over 1 hour of fixation, RPE-choroid-sclera flat mounts were obtained by removing cornea, lens and retina from the eyeballs. The flat mounts were mounted in 50% glycerol on a microscope slide, and the portion burned by laser was photographed using a fluorescence microscope (Nikon Corporation, excitation filter:465-495 nm, absorption filter:515-555 nm). The CNV area was obtained by measurement of hyper-fluorescence area observed on the photograph using Scion image.
The average CNV area of 6 burns was used as an individual value of CNV area, and the average CNV area of compound treated group was compared with that of the vehicle-treated group. […]
For `COCCNCc1cccc(-c2cc3nccc(Oc4ccc(NC(=O)Nc5cc(C)on5)cc4F)c3s2)n1` [162(269), 1-(3-fluoro-4-(2-(6-((2-methoxyethylamino)methyl)pyridin-2-yl)thieno[3,2-b]pyridin-7-yloxy)phenyl)-3-(5-methylisoxazol-3-yl)urea], the “% Inhibition of CNV Progression” value was “A (greater than or equal to 30% inhibition)”. For `COCCNCc1ccc(-c2cc3nccc(Oc4ccc(NC(=O)Nc5cccc(C)c5)cc4F)c3s2)nc1` [161(268), 1-(3-fluoro-4-(2-(5-((2-methoxyethylamino)methyl)pyridin-2-yl)thieno[3,2-b]pyridin-7-yloxy)phenyl)-3-m-tolylurea], the “% Inhibition of CNV Progression” value was “B (≧10% to <30% inhibition)”. In the case of `COCCNCc1ccc(-c2cc3nccc(Oc4ccc(NC(=O)CC(=O)N(C)c5ccccc5)cc4F)c3s2)nc1` [116(223), N1-(3-fluoro-4-(2-(5-((2-methoxyethylamino)methyl)pyridin-2-yl)thieno[3,2-b]pyridin-7-yloxy)phenyl)-N3-methyl-N3-phenylmalonamide], the “% Inhibition of CNV Progression” value was “B (≧10% to <30% inhibition)”. In the case of `C=CCNC(=O)Nc1ccc(Oc2ccnc3cc(-c4ccc(CNCCOC)cn4)sc23)c(F)c1` [167(274), 1-allyl-3-(3-fluoro-4-(2-(5-((2-methoxyethylamino)methyl)pyridin-2-yl)thieno[3,2-b]pyridin-7-yloxy)phenyl)urea], the “% Inhibition of CNV Progression” value was “A (greater than or equal to 30% inhibition)”. With `CN(C(=O)CC(=O)Nc1ccc(Oc2ccnc3cc(-c4ccc(CNCCS(C)(=O)=O)cc4)sc23)c(F)c1)c1ccccc1` [80(187), N1-(3-fluoro-4-(2-(4-((2-(methylsulfonyl)ethylamino)methyl)phenyl)thieno[3,2-b]pyridin-7-yloxy)phenyl)-N3-methyl-N3-phenylmalonamide] the “% Inhibition of CNV Progression” value was “A (greater than or equal to 30% inhibition)”. In the case of `COCCNCc1cnc(-c2cc3nccc(Oc4ccc(NC(=O)C5(C(=O)Nc6ccc(F)cc6)CC5)cc4F)c3s2)n1C` [163(270), N-(3-fluoro-4-(2-(5-((2-methoxyethylamino)methyl)-1-methyl-1H-imidazol-2-yl)thieno[3,2-b]pyridin-7-yloxy)phenyl)-N-(4-fluorophenyl)cyclopropane-1,1-dicarboxamide], the “% Inhibition of CNV Progression” value was “A (greater than or equal to 30% inhibition)”. `CCOCCNCc1ccc(-c2cc3nccc(Oc4ccc(NC(=O)Nc5cc(C)ccc5F)cc4F)c3s2)nc1` [173(280), 1-(4-(2-(5-((2-ethoxyethylamino)methyl)pyridin-2-yl)thieno[3,2-b]pyridin-7-yloxy)-3-fluorophenyl)-3-(2-fluoro-5-methylphenyl)urea] was tested, and the “% Inhibition of CNV Progression” value was “A (greater than or equal to 30% inhibition)”. With `NCCCOCCOCCOCCCNCc1ccc(-c2cc3nccc(Oc4ccc(NC(=O)Nc5cc(C(F)(F)F)ccc5F)cc4F)c3s2)nc1` [177(284), 1-(4-(2-(5-(15-Amino-6,9,12-trioxa-2-azapentadecyl)pyridin-2-yl)thieno[3,2-b]pyridin-7-yloxy)-3-fluorophenyl)-3-(2-fluoro-5-(trifluoromethyl)phenyl)urea] the “% Inhibition of CNV Progression” value was “A (greater than or equal to 30% inhibition)”. With `COCCNCc1cnc(-c2cc3nccc(Oc4ccc(NC(=O)CC(=O)N(C)c5ccccc5)cc4F)c3s2)n1C` [14(50), N^1-(3-Fluoro-4-(2-(5-((2-methoxyethylamino)methyl)-1-methyl-1H-imidazol-2-yl)thieno[3,2-b]pyridin-7-yloxy)phenyl)-N3-methyl-N^3-phenylmalonamide] the “% Inhibition of CNV Progression” value was “B (≧10% to <30% inhibition)”. `COCCNCc1ccc(-c2cc3nccc(Oc4ccc(NC(=O)NC5CC5)cc4F)c3s2)nc1` [170(277), 1-Cyclopropyl-3-(3-fluoro-4-(2-(5-((2-methoxyethylamino)methyl)pyridin-2-yl)thieno[3,2-b]pyridin-7-yloxy)phenyl)urea] was tested, and the “% Inhibition of CNV Progression” value was “A (greater than or equal to 30% inhibition)”.
